Experimental data taken from patent US9873696B2, “Neprilysin inhibitors” (THERAVANCE BIOPHARMA R&D IP, LLC, priority 2010, dated 2018).

molecular target: T1, human NEP (Homo sapiens, UniProt P08473); test: In vitro enzyme inhibition assay at human NEP (Assay 1); format: biochemical; conditions: recombinant enzyme, fluorogenic peptide substrate, 37° C.
T1 construct: purchased R&D Systems, Minneapolis, Minn; 1182-ZN
Protocol: In Vitro Assays for the Quantitation of Inhibitor Potencies (IC50) at Human and Rat NEP, and Human ACE
The inhibitory activities of compounds at human and rat neprilysin (EC 3.4.24.11; NEP) and human angiotensin converting enzyme (ACE) were determined using in vitro assays as described below.
Recombinant human NEP and recombinant human ACE were obtained commercially (R&D Systems, Minneapolis, Minn., catalog numbers 1182-ZN and 929-ZN, respectively). The fluorogenic peptide substrate Mca-D-Arg-Arg-Leu-Dap-(Dnp)-OH (Medeiros et al. (1997) Braz. J. Med. Biol. Res. 30:1157-62; Anaspec, San Jose, Calif.) and Abz-Phe-Arg-Lys(Dnp)-Pro-OH (Araujo et al. (2000) Biochemistry 39:8519-8525; Bachem, Torrance, Calif.) were used in the NEP and ACE assays respectively.
The assays were performed in 384-well white opaque plates at 37° C. using the fluorogenic peptide substrates at a concentration of 10 μM in Assay Buffer (NEP: 50 mM HEPES, pH 7.5, 100 mM NaCl, 0.01% polyethylene glycol sorbitan monolaurate (Tween-20), 10 μM ZnSO4; ACE: 50 mM HEPES, pH 7.5, 100 mM NaCl, 0.01% Tween-20, 1 μM ZnSO4).
Test compounds were assayed over the range of concentrations from […] to 20 μM. Test compounds were added to the enzymes and incubated for 30 minute at 37° C. prior to initiating the reaction by the addition of substrate. Reactions were terminated after 20 minutes of incubation at 37° C. by the addition of glacial acetic acid to a final concentration of 3.6% (v/v).
Plates were read on a fluorometer with excitation and emission wavelengths set to 320 nm and 405 nm, respectively. Inhibition constants were obtained by nonlinear regression of the data using the equation (GraphPad Software, Inc., San Diego, Calif.): v=v0/[1+(I/K′)] where v is the reaction rate, v0 is the uninhibited reaction rate, I is the inhibitor concentration and K′ is the apparent inhibition constant.
Compounds of the invention were tested in this assay and found to have pKi values at human NEP as follows.

T1 sequence (P08473 whole entry): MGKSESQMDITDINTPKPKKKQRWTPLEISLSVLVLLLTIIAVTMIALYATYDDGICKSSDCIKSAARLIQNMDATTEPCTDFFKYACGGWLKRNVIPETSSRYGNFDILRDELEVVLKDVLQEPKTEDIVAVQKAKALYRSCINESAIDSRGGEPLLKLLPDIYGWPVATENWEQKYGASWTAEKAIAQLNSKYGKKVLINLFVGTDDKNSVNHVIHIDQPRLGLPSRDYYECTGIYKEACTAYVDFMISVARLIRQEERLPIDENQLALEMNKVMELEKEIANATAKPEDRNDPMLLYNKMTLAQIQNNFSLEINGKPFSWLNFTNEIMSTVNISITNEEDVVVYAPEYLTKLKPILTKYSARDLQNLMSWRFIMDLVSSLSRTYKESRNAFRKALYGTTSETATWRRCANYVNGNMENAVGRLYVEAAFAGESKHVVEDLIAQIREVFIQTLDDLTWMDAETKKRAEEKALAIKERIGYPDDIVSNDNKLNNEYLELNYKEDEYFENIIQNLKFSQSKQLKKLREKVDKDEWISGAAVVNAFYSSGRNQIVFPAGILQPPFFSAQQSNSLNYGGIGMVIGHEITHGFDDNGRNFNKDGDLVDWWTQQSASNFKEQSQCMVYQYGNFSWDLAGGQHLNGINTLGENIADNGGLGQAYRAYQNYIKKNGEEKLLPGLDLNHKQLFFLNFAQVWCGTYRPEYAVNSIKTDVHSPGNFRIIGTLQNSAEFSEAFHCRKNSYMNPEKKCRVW

First: O=C(NN(Cc1ccc(-c2ccccc2)cc1)C[C@@H](O)C(=O)O)c1cc(-c2ccccc2)n[nH]1 [Example 2-16, (R)-3-[N-Biphenyl-4-ylmethyl-N′-(5-phenyl-2H-pyrazole-3-carbonyl)-hydrazino]-2-hydroxypropionic acid]
Second: O=C(O)c1cc(C(=O)NN(Cc2ccc(-c3ccccc3)cc2)C[C@H](O)C(=O)O)[nH]n1 [Example 2-1, 5-[N′-Biphenyl-4-ylmethyl-N′-((S)-2-carboxy-2-hydroxyethyl)-hydrazinocarbonyl]-1H-pyrazole-3-carboxylic acid]
The Ki of the first is higher: 12.6 to 100 nM for the first, 1.26 to 10 nM for the second.

`O=C(NN(Cc1ccc(-c2cccc(Cl)c2)cc1F)C[C@@H](O)C(=O)O)c1cc(O)no1` [Example 9A, (R)-3-[N-(3′-Chloro-3-fluorobiphenyl-4-ylmethyl)-N′-(3-hydroxyisoxazole-5-carbonyl)-hydrazino]-2-hydroxpropionic Acid] and `O=C(NN(Cc1ccc(-c2cccc(Cl)c2)c(F)c1)C[C@@H](O)C(=O)O)c1cc(O)no1` [Example 10-6, (R)-3-[N-(3′-Chloro-2-fluoro-biphenyl-4-ylmethyl)-N′-(3-hydroxy-isoxazole-5-carbonyl)-hydrazino]-2-hydroxy-propionic acid] cannot be ordered by Ki: no more than 1 nM for the first, no more than 1 nM for the second.

`Cc1cccc(-c2ccc(CN(C[C@H](O)C(=O)O)NC(=O)c3cc(O)no3)cc2)c1` [Example 5-4, (S)-2-Hydroxy-3-[N′-(3-hydroxy-isoxazole-5-carbonyl)-N-(3′-methyl-biphenyl-4-ylmethyl)-hydrazino]-propionic acid] and `Cc1ccc(Cl)cc1-c1ccc(CN(C[C@@H](O)C(=O)O)NC(=O)c2cc(O)no2)cc1` [Example 8-1, (R)-3-[N-(5′-Chloro-2′-methyl-biphenyl-4-ylmethyl)-N′-(3-hydroxy-isoxazole-5-carbonyl)-hydrazino]-2-hydroxy-propionic acid] cannot be ordered by Ki: no more than 1 nM for the first, no more than 1 nM for the second.

First: O=C(NN(Cc1ccc(-c2cccc(Cl)c2)cc1)C[C@@H](O)C(=O)O)c1cnc(O)nc1 [Example 4-34, (R)-3-[N-(3′-Chlorobiphenyl-4-ylmethyl)-N′-(2-hydroxy-pyrimidine-5-carbonyl)-hydrazino]-2-hydroxy-propionic acid]
Second: O=C(NN(Cc1ccc(-c2cccc(Cl)c2)cc1)C[C@@H](O)C(=O)O)c1ccnc(O)n1 [Example 4-37, (R)-3-[N-(3′-Chlorobiphenyl-4-ylmethyl)-N′-(2-hydroxy-pyrimidine-4-carbonyl)-hydrazino]-2-hydroxy-propionic acid]
The Ki of the first is lower: no more than 1 nM for the first, 12.6 to 100 nM for the second. The first binds more tightly here.

`O=C(NN(Cc1ccc(-c2cc(Cl)ccc2Cl)cc1)C[C@H](O)C(=O)O)c1cc(O)no1` [Example 8-22, (S)-3-[N-(2′,5′-Dichloro-biphenyl-4-ylmethyl)-N′-(3-hydroxy-isoxazole-5-carbonyl)-hydrazino]-2-hydroxy-propionic acid] and `O=C(NN(Cc1ccc(-c2cc(Cl)cc(Cl)c2)cc1)C[C@@H](O)C(=O)O)c1cc(O)no1` [Example 8-25, (R)-3-[N-(3′,5′-Dichloro-biphenyl-4-ylmethyl)-N′-(3-hydroxy-isoxazole-5-carbonyl)-hydrazino]-2-hydroxy-propionic acid] cannot be ordered by Ki: no more than 1 nM for the first, no more than 1 nM for the second.

`O=C(NN(Cc1ccc(-c2cc(Cl)ccc2F)cc1)C[C@@H](O)C(=O)O)c1c[nH]c(=O)o1` [Example 8-74, (R)-3-[N-(5′-Chloro-2′-fluoro-biphenyl-4-ylmethyl)-N′-(2-oxo-2,3-dihydro-oxazole-5-carbonyl)-hydrazino]-2-hydroxy-propionic acid] and `CC(=O)c1cc(C(=O)NN(Cc2ccc(-c3cc(Cl)ccc3F)cc2)C[C@H](O)C(=O)O)[nH]n1` [Example 8-45, (S)-3-[N′-(5-Acetyl-2H-pyrazole-3-carbonyl)-N-(5′-chloro-2′-fluoro-biphenyl-4-ylmethyl)-hydrazino]-2-hydroxy-propionic acid] cannot be ordered by Ki: no more than 1 nM for the first, no more than 1 nM for the second.

`CC(C)c1cc(C(=O)NN(Cc2ccc(-c3cc(Cl)ccc3F)cc2)C[C@@H](O)C(=O)O)[nH]n1` [Example 8-44, (R)-3-[N-(5′-Chloro-2′-fluoro-biphenyl-4-ylmethyl)-N′-(5-isopropyl-2H-pyrazole-3-carbonyl)-hydrazino]-2-hydroxy-propionic acid] and `CN(C)C(=O)c1cc(C(=O)NN(Cc2ccc(-c3cc(Cl)ccc3F)cc2)C[C@@H](O)C(=O)O)[nH]n1` [Example 8-35, (R)-3-[N-(5′-Chloro-2′-fluoro-biphenyl-4-ylmethyl)-N′-(5-dimethylcarbamoyl-2H-pyrazole-3-carbonyl)-hydrazino]-2-hydroxy-propionic acid] cannot be ordered by Ki: no more than 1 nM for the first, no more than 1 nM for the second.

First: O=C(NN(Cc1ccc(-c2cc(Cl)ccc2F)cc1)C[C@@H](O)C(=O)O)c1cc(-c2cccc(Cl)c2)no1 [Example 8-16, (R)-3-{N-(5′-Chloro-2′-fluoro-biphenyl-4-ylmethyl)-N′-[3-(3-chloro-phenyl)-isoxazole-5-carbonyl]-hydrazino}-2-hydroxy-propionic acid]
Second: CC(C)(C)c1cc(C(=O)NN(Cc2ccc(-c3cc(Cl)ccc3F)cc2)C[C@@H](O)C(=O)O)on1 [Example 8-33, (R)-3-[N′-(3-tert-Butyl-isoxazole-5-carbonyl)-N-(5′-chloro-2′-fluoro-biphenyl-4-ylmethyl)-hydrazino]-2-hydroxy-propionic acid]
The Ki of the first is lower: no more than 1 nM for the first, 1.26 to 10 nM for the second. The first binds more tightly here.

First: O=C(NN(Cc1ccc(-c2cc(Cl)ccc2F)cc1)C[C@@H](O)C(=O)O)c1cc(-c2ccccn2)n[nH]1 [Example 8-36, (R)-3-[N-(5′-Chloro-2′-fluoro-biphenyl-4-ylmethyl)-N′-(5-pyridin-2-yl-2H-pyrazole-3-carbonyl)-hydrazino]-2-hydroxy-propionic acid]
Second: O=C(NN(Cc1ccc(-c2cccc(Cl)c2)cc1)C[C@@H](O)C(=O)O)c1cc(-c2ccccc2O)n[nH]1 [Example 4-19, (R)-3-{N-(3′-Chlorobiphenyl-4-ylmethyl)-N′-[5-(2-hydroxy-phenyl)-2H-pyrazole-3-carbonyl]-hydrazino}-2-hydroxy-propionic acid]
The Ki of the first is lower: no more than 1 nM for the first, 1.26 to 10 nM for the second. The first binds more tightly here.

First: O=C(NN(Cc1ccc(-c2ccccc2)cc1)C[C@@H](O)C(=O)O)c1cnn[nH]1 [Example 2-21, (R)-3-[N-Biphenyl-4-ylmethyl-N′-(3H-[1,2,3]triazole-4-carbonyl)hydrazino]-2-hydroxypropionic acid]
Second: O=C(NN(Cc1ccc(-c2ccccc2)cc1)C[C@H](O)C(=O)O)c1cc(F)c2[nH]nnc2c1 [Example 2-24, (S)-3-[N-Biphenyl-4-ylmethyl-N′-(7-fluoro-1H-benzotriazole-5-carbonyl)-hydrazino]-2-hydroxypropionic acid]
The Ki of the first is lower: 12.6 to 100 nM for the first, 126 to 1000 nM for the second.

`O=C(NN(Cc1ccc(-c2ccccc2F)cc1)C[C@@H](O)C(=O)O)c1cc(O)no1` [Example 5-8, (R)-3-[N-(2′-Fluoro-biphenyl-4-ylmethyl)-N′-(3-hydroxy-isoxazole-5-carbonyl)-hydrazino]-2-hydroxy-propionic acid] and `CC(C)c1cc(C(=O)NN(Cc2ccc(-c3cc(Cl)ccc3F)cc2)C[C@@H](O)C(=O)O)nn1CC(=O)O` [Example 8-54, (R)-3-[N′-(1-Carboxymethyl-5-isopropyl-1H-pyrazole-3-carbonyl)-N-(5′-chloro-2′-fluoro-biphenyl-4-ylmethyl)-hydrazino]-2-hydroxy-propionic acid] fall in the same range of Ki: 1.26 to 10 nM for the first, 1.26 to 10 nM for the second.

First: O=C(NN(Cc1ccc(-c2cccc(Cl)c2)cc1)C[C@@H](O)C(=O)O)c1cc(C(=O)N2CCC2)n[nH]1 [Example 4-12, (R)-3-[N′-[5-(Azetidine-1-carbonyl)-2H-pyrazole-3-carbonyl]-N-(3′-chlorobiphenyl-4-ylmethyl)-hydrazino]-2-hydroxy-propionic acid]
Second: O=C(NN(Cc1ccc(-c2ccccc2)cc1)C[C@@H](O)C(=O)O)c1cc(C(=O)N2CCC2)n[nH]1 [Example 2-8, (R)-3-{N′-[5-(Azetidine-1-carbonyl)-2H-pyrazole-3-carbonyl]-N-biphenyl-4-ylmethylhydrazino}-2-hydroxypropionic acid]
The Ki of the first is lower: no more than 1 nM for the first, 1.26 to 10 nM for the second.

`O=C(NN(Cc1ccc(-c2cc(Cl)ccc2F)cc1)C[C@@H](O)C(=O)O)c1nn(-c2ccc(F)cc2)c(=O)[nH]1` [Example 8-65, (R)-3-{N-(5′-Chloro-2′-fluoro-biphenyl-4-ylmethyl)-N′-[1-(4-fluoro-phenyl)-5-oxo-4,5-dihydro-1H-[1,2,4]triazole-3-carbonyl]-hydrazino}-2-hydroxy-propionic acid] and `O=C(NN(Cc1ccc(-c2ccccc2)cc1)C[C@@H](O)C(=O)O)c1cc(C(=O)N2CCC(O)C2)n[nH]1` (stereo partly drawn) [Example 2-10, (R)-3-{N-Biphenyl-4-ylmethyl-N′-[5-(3-hydroxy-pyrrolidine-1-carbonyl)-2H-pyrazole-3-carbonyl]hydrazino}-2-hydroxypropionic acid] fall in the same range of Ki: 1.26 to 10 nM for the first, 1.26 to 10 nM for the second.
